This is an account of results in patent US12311025B2, “Formulations for eye treatments” (Avedro, Inc., priority 2017, dated 2025).

Broadly, the solubility is the concentration that dissolves in the medium under given conditions.

Values after ≈ are worked out from the molar mass of the structure shown.

The conditions of data set [1]: cited from earlier work.
Data set [2] can be described thus: Solubility of FMN in co-solvents. The conditions noted are these: organic solvent or mixture. The class given is physicochemical. The source says: Other penetration-enhancing agents may include a non-ionic co-solvent as a tonicity agent in a formulation. Tonicity agents that are sufficiently low in MW can readily diffuse into the tissues. The therapeutic agent having good solubility in the co-solvent can experience enhanced delivery through the epithelium and into the stroma. Propylene glycol may be a penetration enhancer for topical formulations by this mechanism of action. Thus, the one or more therapeutic formulations 304 may include one or more co-solvents as tonicity agents 304c. A list of co-solvents that may be used to increase therapeutic agent delivery via this mechanism of action and suitable for ophthalmic use are shown in TABLE 2.
Both propylene glycol and glycerin may be employed as ingredients in dry eye drops. Glycerin has been evaluated for therapeutic agent delivery into the eye and is capable of penetrating the cornea. For instance, FMN has solubility in propylene glycol and glycerin that is greater than the total concentration in the formulation. As the co-solvent penetrates the tissues, it may carry some FMN into the tissues as well enhancing the delivery. Replacing the sodium chloride with glycerin or propylene glycol should not negatively impact therapeutic agent delivery of the FMN.

Regarding `CC1CCC(C(C)C)C(O)C1` (stereo not shown) [menthol], in data set [1], the solubility in water was 0.04%.
As to `Cc1cc2nc3c(=O)[nH]c(=O)nc-3n(C[C@H](O)[C@H](O)[C@H](O)COP(=O)(O)O)c2cc1C` [FMN, riboflavin-5′-phosphate], the results for the solubility in data set [2] (in ethanol), in data set [2] (in glycerin) and in data set [2] (in propylene glycol) were 80 µg/mL (≈ 0.175 mM), 8900 µg/mL (≈ 19.5 mM) and 5700 µg/mL (≈ 12.5 mM), respectively.
